Measurements from patent EP1984353B1, “AURORA KINASE MODULATORS AND METHOD OF USE” (Amgen, Inc, priority 2006, dated 2007).
Like-named read-outs stand apart in the source and are kept apart here.

Assays:
AuroraA-TPX2 = biological target: T1, AuroraA-TPX2 (Homo sapiens, UniProt O14965); assay: AuroraA-TPX2 Homogeneous Time Resolved Fluorescent (HTRF) kinase assay; type: biochemical; settings: average, read-out: AurA/TP X2_ IC50_IP (Avg)
T1 construct: 20 µL of AuroraA-TPX2 KD GST; GST
T1 sequence (O14965 133-383 limits assumed): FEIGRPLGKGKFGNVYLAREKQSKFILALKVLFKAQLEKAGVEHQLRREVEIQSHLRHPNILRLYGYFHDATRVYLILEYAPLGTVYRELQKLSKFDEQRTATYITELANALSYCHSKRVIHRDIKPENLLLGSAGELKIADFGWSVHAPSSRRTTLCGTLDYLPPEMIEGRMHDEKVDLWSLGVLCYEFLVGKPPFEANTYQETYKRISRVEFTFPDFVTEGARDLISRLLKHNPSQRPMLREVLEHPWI
T1 sequence (Q9ULW0 1-43 partner limits assumed): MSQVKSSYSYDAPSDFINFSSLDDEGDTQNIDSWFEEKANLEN
Procedure, shortened: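 Aurora-A/TPX2 phosphorylates biotinylated PLK peptide (about 1 µM) with ATP for about 120 min in 60 mM HEPES pH 7.5, 10 mM MgCl2, 2 mM DTT. EDTA quench, overnight equilibration with Eu-anti-phosphoPLK antibody and SA-APC; HTRF read at 615/655 nm after 320 nm excitation.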

AuroraB = biological target: T2, AuroraB (Homo sapiens, UniProt Q96GD4); assay: AuroraB Homogeneous Time Resolved Fluorescent (HTRF) kinase assay; type: biochemical; settings: average, read-out: AurB_ _IC50_IP (Avg)
T2 construct: 20 µL of AuroraB FL His; His
T2 sequence (Q96GD4 whole entry): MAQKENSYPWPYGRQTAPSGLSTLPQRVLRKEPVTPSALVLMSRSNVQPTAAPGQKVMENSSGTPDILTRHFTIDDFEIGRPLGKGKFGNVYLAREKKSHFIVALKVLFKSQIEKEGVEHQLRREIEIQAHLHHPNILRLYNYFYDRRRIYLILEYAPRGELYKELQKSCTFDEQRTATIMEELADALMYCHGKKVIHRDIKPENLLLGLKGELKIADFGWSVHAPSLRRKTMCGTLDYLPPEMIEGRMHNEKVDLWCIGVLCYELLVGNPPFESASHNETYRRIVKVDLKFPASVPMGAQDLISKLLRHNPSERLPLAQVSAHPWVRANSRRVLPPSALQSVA
Procedure, shortened: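 Full-length His-tagged AuroraB (400 pM) phosphorylates 0.1 µM biotinylated Histone H3 with 23 µM ATP (Km(app)) in HEPES pH 7.5 with Mg/Mn, about 90 min. EDTA-quenched; Eu-anti-phosphoHistoneH3 and SA-APC HTRF, 655/615 nm ratio as phosphorylation.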

[1] = given as numbers, unit inferred

C[C@H]1CN(CCCNc2nccc(-c3cccnc3Oc3ccc(Nc4nnc(-c5ccccc5)c5ccccc45)cc3)n2)CCN1 [compound 411, N-(4-((3-(2-((3-((3S)-3-methyl-1-piperazinyl)propyl)amino)-4-pyrimidinyl)-2-pyridinyl)oxy)phenyl)-4-phenyl-1-phthalazinamine]
IC50 (AuroraA-TPX2; given as class symbols): ≤ 100 nM
IC50 (AuroraB; given as class symbols): ≤ 100 nM

COc1cccc(OC)c1-c1nnc(Nc2ccc(Oc3ncccc3-c3ccnc(N)n3)cc2)c2ccccc12 [compound 253, N-(4-((3-(2-amino-4-pyrimidinyl)-2-pyridinyl)oxy)phenyl)-4-(2,6-bis(methyloxy)phenyl)-1-phthalazinamine]
IC50 (AuroraA-TPX2; [1]): 2320 nM
IC50 (AuroraB; [1]): 472 nM

Nc1nccc(-c2cccnc2Oc2ccc(Nc3nnc(-c4cc(O)ccc4F)c4ccccc34)cc2)n1 [compound 373, 3-(4-((4-((3-(2-amino-4-pyrimidinyl)-2-pyridinyl)oxy)phenyl)amino)-1-phthalazinyl)-4-fluorophenol]
IC50 (AuroraA-TPX2; given as class symbols): ≤ 100 nM
IC50 (AuroraB; given as class symbols): ≤ 100 nM

COc1cccc(-c2nnc(Nc3ccc(Oc4ncccc4-c4ccnc(NCCCN5CCCC5)n4)cc3)c3ccccc23)n1 [compound 455, 4-(6-(methyloxy)-2-pyridinyl)-N-(4-((3-(2-((3-(1-pyrrolidinyl)propyl)amino)-4-pyrimidinyl)-2-pyridinyl)oxy)phenyl)-1-phthalazinamine]
IC50 (AuroraA-TPX2; given as class symbols): ≤ 100 nM
IC50 (AuroraB; given as class symbols): ≤ 100 nM

Cc1ccnc(-c2nnc(Nc3ccc(Oc4ncccc4-c4ccnc(N)n4)cc3)c3ccccc23)c1 [compound 404, N-(4-((3-(2-amino-4-pyrimidinyl)-2-pyridinyl)oxy)phenyl)-4-(4-methyl-2-pyridinyl)-1-phthalazinamine]
IC50 (AuroraA-TPX2; given as class symbols): 100 to 500 nM
IC50 (AuroraB; given as class symbols): ≤ 100 nM

Cc1cccc(-c2nnc(Nc3ccc(Oc4ncccc4-c4ccnc(NCCCN5CCN(C)CC5)n4)cc3)c3ccccc23)n1 [compound 275, N-(4-((3-(2-((3-(4-methyl-1-piperazinyl)propyl)amino)-4-pyrimidinyl)-2-pyridinyl)oxy)phenyl)-4-(6-methyl-2-pyridinyl)-1-phthalazinamine]
IC50 (AuroraA-TPX2; [1]): 94.9 nM
IC50 (AuroraB; [1]): 13.4 nM

CN1CCN(CCCNc2ncc(F)c(-c3cccnc3Oc3ccc(Nc4nnc(-c5ccccc5)c5ccccc45)cc3)n2)CC1 [compound 291, N-(4-((3-(5-fluoro-2-((3-(4-methyl-1-piperazinyl)propyl)amino)-4-pyrimidinyl)-2-pyridinyl)oxy)phenyl)-4-phenyl-1-phthalazinamine]
IC50 (AuroraA-TPX2; [1]): 15.7 nM
IC50 (AuroraB; [1]): 3 nM

CC(=O)OCc1cccc(-c2nnc(Nc3ccc(Oc4ncccc4-c4ccnc(N)n4)cc3)c3ccccc23)n1 [compound 296, (6-(4-((4-((3-(2-amino-4-pyrimidinyl)-2-pyridinyl)oxy)phenyl)amino)-1-phthalazinyl)-2-pyridinyl)methyl acetate]
IC50 (AuroraA-TPX2; given as class symbols): ≤ 100 nM
IC50 (AuroraB; given as class symbols): ≤ 100 nM

Nc1nccc(-c2cccnc2Oc2ccc(Nc3nnc(N4CCCC(CO)C4)c4ccccc34)cc2)n1 (stereo not shown) [compound 352, (1-(4-((4-((3-(2-amino-4-pyrimidinyl)-2-pyridinyl)oxy)phenyl)amino)-1-phthalazinyl)-3-piperidinyl)methanol]
IC50 (AuroraA-TPX2; given as class symbols): ≤ 100 nM
IC50 (AuroraB; given as class symbols): ≤ 100 nM

CN1CCN(CCCNc2nccc(-c3cccnc3Oc3ccc(Nc4nnc(-c5ccccc5)c5ccccc45)cn3)n2)CC1 [compound 389, N-(6-((3-(2-((3-(4-methyl-1-piperazinyl)propyl)amino)-4-pyrimidinyl)-2-pyridinyl)oxy)-3-pyridinyl)-4-phenyl-1-phthalazinamine]
IC50 (AuroraA-TPX2; given as class symbols): ≤ 100 nM
IC50 (AuroraB; given as class symbols): ≤ 100 nM

Cc1ccc(-c2nnc(Nc3ccc(Oc4ncccc4-c4ccnc(N)n4)nc3)c3ccccc23)nc1 [compound 289, N-(6-((3-(2-amino-4-pyrimidinyl)-2-pyridinyl)oxy)-3-pyridinyl)-4-(5-methyl-2-pyridinyl)-1-phthalazinamine]
IC50 (AuroraA-TPX2; [1]): 24.1 nM
IC50 (AuroraB; [1]): 1.9 nM

COc1cccc(-c2nnc(Nc3ccc(Oc4ncccc4-c4ccnc(NCCCN5CCNCC5)n4)cc3)c3ccccc23)n1 [compound 460, 4-(6-(methyloxy)-2-pyridinyl)-N-(4-((3-(2-((3-(1-piperazinyl)propyl)amino)-4-pyrimidinyl)-2-pyridinyl)oxy)phenyl)-1-phthalazinamine]
IC50 (AuroraA-TPX2; given as class symbols): ≤ 100 nM
IC50 (AuroraB; given as class symbols): ≤ 100 nM

Nc1nccc(-c2cccnc2Oc2ccc(Nc3nnc(N4CCN5CCCCC5C4)c4ccccc34)cc2)n1 (stereo not shown) [compound 406, N-(4-((3-(2-amino-4-pyrimidinyl)-2-pyridinyl)oxy)phenyl)-4-(octahydro-2H-pyrido[1,2-a]pyrazin-2-yl)-1-phthalazinamine]
IC50 (AuroraA-TPX2; given as class symbols): ≤ 100 nM
IC50 (AuroraB; given as class symbols): ≤ 100 nM

c1ccc(-c2nnc(Nc3ccc(Oc4ncccc4-n4ccnc4)cc3)c3ccccc23)cc1 [compound 268, N-(4-((3-(1H-imidazol-1-yl)-2-pyridinyl)oxy)phenyl)-4-phenyl-1-phthalazinamine]
IC50 (AuroraA-TPX2; given as class symbols): 500 to 2500 nM
IC50 (AuroraB; given as class symbols): 500 to 2500 nM

COc1ccc(F)cc1-c1nnc(Nc2ccc(Oc3ncccc3-c3ccnc(N)n3)cc2)c2ccccc12 [compound 380, N-(4-((3-(2-amino-4-pyrimidinyl)-2-pyridinyl)oxy)phenyl)-4-(5-fluoro-2-(methyloxy)phenyl)-1-phthalazinamine]
IC50 (AuroraA-TPX2; given as class symbols): ≤ 100 nM
IC50 (AuroraB; given as class symbols): ≤ 100 nM

Nc1nccc(-c2cccnc2Oc2ccc(Nc3nnc(N4CCCC(O)C4)c4ccccc34)cc2)n1 (stereo not shown) [compound 354, 1-(4-((4-((3-(2-amino-4-pyrimidinyl)-2-pyridinyl)oxy)phenyl)amino)-1-phthalazinyl)-3-piperidinol]
IC50 (AuroraA-TPX2; [1]): 87.4 nM
IC50 (AuroraB; [1]): 25.9 nM

Nc1nccc(-c2cccnc2Oc2ccc(Nc3nnc(N4CCN5CCC[C@H]5C4)c4ccccc34)cn2)n1 [compound 402, N-(6-((3-(2-amino-4-pyrimidinyl)-2-pyridinyl)oxy)-3-pyridinyl)-4-((8aS)-hexahydropyrrolo[1,2-a]pyrazin-2(1H)-yl)-1-phthalazinamine]
IC50 (AuroraA-TPX2; given as class symbols): ≤ 100 nM
IC50 (AuroraB; given as class symbols): ≤ 100 nM

Nc1nccc(-c2cccnc2Oc2ccc(Nc3nnc(N4CCN5CCCC5C4)c4ccccc34)cn2)n1 (stereo not shown) [compound 397, N-(6-((3-(2-amino-4-pyrimidinyl)-2-pyridinyl)oxy)-3-pyridinyl)-4-(hexahydropyrrolo[1,2-a]pyrazin-2(1H)-yl)-1-phthalazinamine]
IC50 (AuroraA-TPX2; given as class symbols): ≤ 100 nM
IC50 (AuroraB; given as class symbols): ≤ 100 nM

CS(=O)(=O)c1cccc(-c2nnc(Nc3ccc(Oc4ncccc4-c4ccnc(N)n4)cc3)c3ccccc23)c1 [compound 316, N-(4-((3-(2-amino-4-pyrimidinyl)-2-pyridinyl)oxy)phenyl)-4-(3-(methylsulfonyl)phenyl)-1-phthalazinamine]
IC50 (AuroraA-TPX2; given as class symbols): ≤ 100 nM
IC50 (AuroraB; given as class symbols): ≤ 100 nM

Cc1ccn(-c2nnc(Nc3ccc(Oc4ncccc4-c4ccnc(N)n4)cc3)c3ccccc23)n1 [compound 408, N-(4-((3-(2-amino-4-pyrimidinyl)-2-pyridinyl)oxy)phenyl)-4-(3-methyl-1H-pyrazol-1-yl)-1-phthalazinamine]
IC50 (AuroraA-TPX2; given as class symbols): ≤ 100 nM
IC50 (AuroraB; given as class symbols): ≤ 100 nM

Cc1ccnn1-c1nnc(Nc2ccc(Oc3ncccc3-c3ccnc(N)n3)cc2)c2ccccc12 [compound 407, N-(4-((3-(2-amino-4-pyrimidinyl)-2-pyridinyl)oxy)phenyl)-4-(5-methyl-1H-pyrazol-1-yl)-1-phthalazinamine]
IC50 (AuroraA-TPX2; given as class symbols): ≤ 100 nM
IC50 (AuroraB; given as class symbols): ≤ 100 nM

FC1(F)CCCN(CCCNc2nccc(-c3cccnc3Oc3ccc(Nc4nnc(-c5ccccc5)c5ccccc45)cc3)n2)C1 [compound 453, N-(4-((3-(2-((3-(3,3-difluoro-1-piperidinyl)propyl)amino)-4-pyrimidinyl)-2-pyridinyl)oxy)phenyl)-4-phenyl-1-phthalazinamine]
IC50 (AuroraA-TPX2; given as class symbols): ≤ 100 nM
IC50 (AuroraB; given as class symbols): ≤ 100 nM

Nc1nccc(-c2cccnc2Oc2ccc(Nc3nnc(-c4ccccc4O)c4ccccc34)cn2)n1 [compound 365, 2-(4-((6-((3-(2-amino-4-pyrimidinyl)-2-pyridinyl)oxy)-3-pyridinyl)amino)-1-phthalazinyl)phenol]
IC50 (AuroraA-TPX2; [1]): 27.6 nM
IC50 (AuroraB; [1]): 11.3 nM

C[C@H](O)c1cccc(-c2nnc(Nc3ccc(Oc4ncccc4-c4ccnc(N)n4)nc3)c3ccccc23)c1 [compound 369, (1S)-1-(3-(4-((6-((3-(2-amino-4-pyrimidinyl)-2-pyridinyl)oxy)-3-pyridinyl)amino)-1-phthalazinyl)phenyl)ethanol]
IC50 (AuroraA-TPX2; given as class symbols): ≤ 100 nM
IC50 (AuroraB; given as class symbols): ≤ 100 nM

Nc1n[nH]cc1-c1cccnc1Oc1ccc(Nc2nnc(-c3ccccc3)c3ccccc23)cc1F [compound 314, N-(4-((3-(3-amino-1H-pyrazol-4-yl)-2-pyridinyl)oxy)-3-fluorophenyl)-4-phenyl-1-phthalazinamine]
IC50 (AuroraA-TPX2; [1]): 4.5 nM
IC50 (AuroraB; [1]): 2.4 nM

CN1CCN(CCCNc2nccc(-c3cccnc3Oc3ccc(Nc4nnc(-c5ccccn5)c5ccccc45)cc3)n2)CC1 [compound 323, N-(4-((3-(2-((3-(4-methyl-1-piperazinyl)propyl)amino)-4-pyrimidinyl)-2-pyridinyl)oxy)phenyl)-4-(2-pyridinyl)-1-phthalazinamine]
IC50 (AuroraA-TPX2; given as class symbols): 100 to 500 nM
IC50 (AuroraB; given as class symbols): ≤ 100 nM
